# Laboratory results as given in US11851670B2, “Nucleic acid constructs encoding reprogramming factors linked by self-cleaving peptides” (Whitehead Institute for Biomedical Research, priority 2008, dated 2023).
# Legend:
# [1] = tested on: NGFP3 secondary MEFs; assay: Effect of drugs on dox-induced reprogramming of secondary MEFs (GFP+ colony count); assay type: cell-based, mouse; settings: dox plus 1 μM compound for two 48 h periods
# Description: We also tested whether the secondary cells could be used to assess the effect of drugs on the efficiency of reprogramming. For this we explored the effects of the DNA demethylating compound 5-Aza-deoxycytidine (5-Aza) and the histone deacetylase inhibitor trichostatin A (TSA). Because of their action on chromatin modifications both small molecules are candidates to improve the 5reprogramming efficiency.
# For MEF isolation, chimeric embryos were isolated at E13.5 and the head and internal (including reproductive) organs were removed. Remaining tissue was physically dissociated and incubated in trypsin at 37° C. for 20 minutes, after which cells were resuspended in MEF media containing puromycin (2 μg/mL) and expanded for two passages prior to freezing. Secondary MEFs used for the described experiments were thawed and experiments plated 1-2 passages after thawing. Kinetic experiments (FIG. 2) were performed by plating 4×10^4 secondary MEFs per well in 6 well plates and plates were stained or analyzed at the indicated times. Cell density experiments were performed in 12 well plates and GFP+ iPS colonies were scored 4 weeks after dox induction. Single cell efficiency experiments were performed by plating single secondary MEFs onto a layer of wildtype feeder MEFS in 96 well plates prior to dox induction (using limiting dilutions, which were confirmed by eye in replicate plates lacking feeder MEFs). iPS formation was scored 4 weeks later. Representative experiments from 2-3 biological replicates are shown. For 5-Aza and TSA experiments, […] secondary MEFs were plated in 6 well plates (approx 100 cells/mm^2) and pretreated with ES cell media containing 5-Aza (1 μM) or TSA (1 μM) for 48 h. After 48 h, secondary MEFs were cultured in ES cell media plus dox lacking 5-Aza or TSA. MEFS were exposed to 5-Aza or TSA for a second 48 h period between days 8-10 after induction, followed by culture with dox only until scoring GFP+ colonies on day 21.
# [2] = tested on: mouse fibroblasts; settings: treatment decreasing global DNA methylation; cited from earlier work
# [3] = tested on: SOX2-ER fusion construct; assay: Tamoxifen-dependent activation of SOX2-ER fusion construct in transduced fibroblasts; assay type: cell-based, human; settings: cells transduced with SOX2-ER fusion construct
# Description: (a) DOX inducible lentivirus vectors: Following the same strategy as used for murine genes we have generated lentiviral vectors that transduce the human OCT4, SOX2, KLF4 and C-MYC c-DNAs either constitutively or under the control of a DOX inducible promoter [Brambrink, 2008 #6877]. To generate a DOX inducible system we infected human fibroblasts with a lentiviral vector carrying the rtTA transactivator. […] (b) Tamoxifen inducible lentivirus vectors: To enable independent inducible control of vectors we also generated OCT4, SOX2 and C-MYC estrogen receptor (ER) fusion constructs by fusing the factors to the estrogen ligand binding domain to allow for tamoxifen dependent expression [Grandori, 1996 #6505].
# [4] = tested on: ES cells; settings: chemically defined medium, absence of LIF; cited from earlier work
# [5] = tested on: huES cells; settings: cited from earlier work
smiles,measurement,setting,value
"Nc1ncn([C@H]2C[C@H](O)[C@@H](CO)O2)c(=O)n1 [5-Aza, 5-Aza-deoxycytidine]",reprogramming efficiency (number of GFP+ colonies),[1]; GFP+ colonies scored on day 21,increased the reprogramming efficiency
same,reprogramming efficiency (number of GFP+ colonies),"[1]; GFP+ colonies scored on day 21, listed as 5-Aza-deoxycytidine",substantially enhances the reprogramming efficiency
same,reprogramming of mouse fibroblasts,[2],enhance reprogramming of mouse fibroblasts
CC/C(=C(\c1ccccc1)c1ccc(OCCN(C)C)cc1)c1ccccc1 [tamoxifen],localisation of SOX2 protein after tamoxifen addition,[3],translocation of the SOX2 protein from the cytoplasm to the nucleus
"CC(/C=C/C(=O)NO)=C\[C@@H](C)C(=O)c1ccc(N(C)C)cc1 [TSA, trichostatin A]",reprogramming efficiency (number of GFP+ colonies),[1]; GFP+ colonies scored on day 21,no obvious effect on the number of colonies
Cc1cc(Nc2ncc3c(n2)N(C)C(=O)N(c2cc(NC(=O)c4cccc(C(F)(F)F)c4)ccc2C)C3)n(C)n1 [pluripotin],self renewal of ES cells,[4],sustains self renewal of ES cells
C[C@@H](N)[C@H]1CC[C@H](C(=O)Nc2ccncc2)CC1 [Y-27632],cloning efficiency,[5],increase cloning efficiency
same,dissociation-induced apoptosis,[5],markedly diminish dissociation-induced apoptosis
